Laboratory results as given in patent US20050107466A1, “Method of treating or reducing suicidal thoughts with escitalopram” (H. Lundbeck A/S, priority 2003, published 2005).

How the values were obtained:
[1] = randomised, double-blind, parallel-group clinical trial, 8 weeks; HAM-D and MADRS items of suicidal thoughts; type: in vivo; details: escitalopram daily dose of 10-20 mg compared with 40 mg citalopram; persons with major depression
Method: In brief, a clinical trial was designed as a randomised, double-blind, parallel-group trial comprising two different fixed escitalopram doses (10 mg and 20 mg per day) for eight weeks. A placebo-arm was included, as was an active comparator arm in terms of 40 mg citalopram per day. The persons fulfilled the following criteria: (a) DSM-IV (i) major depression with symptoms present for a minimum of 4 weeks; (b) minimum total score of 22 on the 10-item MADRS (Montgomery SA, Åsberg M., A new depression scale designed to be sensitive to change., Br. J. Psychiatry 1979, 134, 382-389) and a score of 2 or more on the HAM-D item (depressed mood) (Hamilton, M., Br. J. Soc. Clin. Psychol 1967, 6, 278-296). Persons who still fulfilled the MADRS and HAM-D criteria after 1-week, single-blind placebo lead-in were randomised to the double-blind treatment. Throughout the 8-week double-blind treatment period, persons assigned to placebo or escitalopram 10 mg daily received no adjustment of dosage. Persons in the escitalopram 20 mg daily group and in the citalopram group were titrated to their final dose of after 1 week of treatment at half of their assigned dose. […] Persons were evaluated at baseline (the end of the 1-week placebo lead-in) and after 1, 2, 4, 6, and 8 weeks. […]

[2] = analysis of data from four clinical studies; suicidal thoughts (MADRS item 10); type: in vivo, patients

CN(C)CCC[C@@]1(c2ccc(F)cc2)OCc2cc(C#N)ccc21 [escitalopram]
reducing suicidal thoughts [1]: more effective | overall effect on suicidal thoughts or suicidal ideation ([2]; after one week of treatment with 10-20 mg escitalopram compared to placebo): significantly pronounced already after one week | percentage of patients experiencing an increase in suicidal thoughts ([2]; after one week of treatment, compared to patients treated with citalopram or placebo): significantly lower | treatment of the group of patients having a score greater than or equal to 2 on item 10 on the MADRS depression scale ([2]; compared to citalopram, results of four clinical studies): more much more effective | alleviation of suicidal ideation ([2]; general statement of the finding): early alleviation of suicidal ideation
